Experimental data: patent US7122668B2, “Platinum complexes and their use in therapy” (priority 2002, dated 2006)

Assays:
plasmid pS16-hGH DNA = assay: Determination of Pt-DNA adducts by EtBr fluorescence; type: binding; conditions: DNA modified 24 hr
Method: A plasmid (4.8 kbp) containing a gene coding for human growth hormone, plasmid pS16-hGH, was prepared as previously described^(23). The freshly prepared DNA was analyzed by agarose gel (1%) electrophoresis using post-staining with SYBR Green I fluorescent dye (Molecular Probes, Eugene, Oreg.). […] The ratio of absorbance at 260 nm to that at 280 nm was always between 1.8 and 1.9.
DNA were modified by the platinum complexes in 10 mM NaClO4 (pH 7.0) at 37° C. in the dark for 24 hr. Measurements of EtBr fluorescence were performed on an LS50B luminescence spectrometer (Perkin Elmer, Norwalk, Conn.). Fluorescence measurements of DNA modified by platinum in the presence of EtBr were performed using the excitation wavelength of 546 nm (slit 10 run) and emission wavelength of 590 nm (slit 10 nm) at 25° C. The concentrations were 0.01 mg/ml for DNA and 0.04 mg/ml for EtBr, which corresponded to the saturation of all intercalation sites of EtBr in DNA.
EtBr, as the fluorescent probe, was used to distinguish between perturbations induced in DNA by adducts of platinum (II) compounds^(14). Binding of EtBr by intercalation is blocked in a stoichiometric manner by formation of the bifunctional adducts, as of Cis-Pt, which results in a loss of fluorescence intensity. On the other hand, formation of monofunctional adducts results only in a slight decrease of EtBr fluorescence.

In vivo toxicity = assay: In vivo toxicity; design: species or system BALB/C mice; conditions: 5 mg/kg, i.v., three times at weekly intervals
C-26 colon carcinoma = assay: In vivo antitumor efficacy; design: species or system BALB/C mice; conditions: 5 mg/kg, three injections at weekly intervals from day 3 after i.p. tumor inoculation
Method: Female BALB/C mice (in the weight range of 17–20 g) were injected i.p. with 1*10^6 C-26 colon carcinomas.
Treatment began at day 3 after tumor inoculation and was repeated twice for a total of three injections at weekly intervals.
Female BALB/C mice (in the weight range of 17–20 gr) were injected i.p. with 1*10^6 C-26 colon carcinomas.
Treatment was as performed according to the schedule described above.

C-26 cells [1] = assay: Determination of Pt-DNA adducts by FAAS; type: cell-based, human
Method: (§1) Cells were seeded for 48 hr before one of the drugs was added to the culture medium. After 24 hr of exposure, the complexes were removed and the cells washed twice with ice-cold PBS and pelleted. DNA from platinum-containing material (2*10^6 cells) was extracted from the cell pellet by QIAamp DNA Blood Kit (QIAGEN, Germany) according to the manufacture instructions. DNA yield was determined by measuring the concentration of DNA in the eluate by absorbance at 260 nm.

OV-1063 cells [2] = assay: Determination of Pt-DNA adducts by FAAS; type: cell-based, human
Method: as §1

[3] = tested on: caspase-3 in OV-1063 cells; assay: EnzChek Caspase-3 assay; type: cell-based, human
Description: (2) By the EnzChektm Caspase-3 Assay Kit (Molecular probes, Eugene, Oreg.). This Kit allows the detection of apoptosis by assaying for increases in caspase-3 and other DEVD-specific protease activities (e.g., caspase-7). The basis for the assay is rodamine 110 bis-(N-CBZ-aspartil-L-glutarnyl-L-valyl-aspartic acid amide) (Z-DEVD-R110). This substrate is a bisamide derivative of rhodamine 110(R110) containing DEVD peptides covalently linked to each of R110's amino groups. Upon enzymatic cleavage, the non-fluorescent bisamide substrate converted to the fluorescent R110, which can be quantified by fluorescence microplate reader using excitation at 485±10 nm and emission detection at 535±10 nm.
(12) (5 μM and 7.5 μM, respectively) for 5 or 16 hr. Both “induced” and “control” cells were then harvested and lysed. Enzyme reactions were performed in 96-well plates with 50 μg of cytosolic proteins (55 minutes of incubation) and with a final concentration of 25 μM Z-DEVD-R110 substrate as described in the kit protocol.

A2780 = assay: Microculture tetrazolium (MTS) cell survival assay; type: cell-based; conditions: 24 hours incubation
Method: (§2) Cytotoxicity of the synthesized complexes was also tested by the MTS method^(21). Accordingly, the compounds were incubated for 24 hours with the corresponding cell lines and the cell survival in compound-treated cultures was evaluated.
(§3) The complexes were incubated for 24 hours with the above mentioned cell lines and the cell survival in compound-treated cultures was evaluated by the (microculture tetrazolium) MTS method as previously reported.

41McisR = assay: Microculture tetrazolium (MTS) cell survival assay; type: cell-based
Method: as §2, §3

CH1cisR = assay: Microculture tetrazolium (MTS) cell survival assay; type: cell-based
Method: as §2, §3

CH1 = assay: Microculture tetrazolium (MTS) cell survival assay; type: cell-based; conditions: 24 hours incubation
Method: as §2, §3

A2780cisR = assay: Microculture tetrazolium (MTS) cell survival assay; type: cell-based
Method: as §2, §3

41M = assay: Microculture tetrazolium (MTS) cell survival assay; type: cell-based; conditions: 24 hours incubation
Method: as §2, §3

C-26 cells [4] = assay: Platinum complex intracellular accumulation (FAAS); type: cell-based, human; conditions: C-26, 24 hr
Method: (§4) Cells were seeded for 48 hr before one of the complexes was added to the culture medium. After 24 hr of exposure, the complexes were removed and the cells washed twice with ice-cold PBS and pelleted. The cells (1*10^6) were dried and mineralized by heating for 10 min in 65% HNO3 (BDH, England)^(22). Samples were dissolved in de-ionized water and each sample was measured at two different dilutions by flameless Zeeman atomic absorption spectrometer (FAAS). The calibration curves included 5 standards of K2PtCl4 stock solution with concentrations ranging from 50 to 250 ng platinum per ml. Platinum content was expressed as picomoles platinum per 1*10^6 cells.
(§5) The Pt content associated with the cells was measured by Atomic Absorption Spectroscopy (AAS).

OV-1063 cells [5] = assay: Platinum complex intracellular accumulation (FAAS); type: cell-based, human; conditions: OV-1063, 24 hr
Method: as §4, §5

calf thymus DNA = assay: DNA binding (calf thymus DNA platination)
Method: The formation of calf thymus DNA platination was also examined. To this end, calf thymus DNA was incubated with different compounds (Table 3) in which the following parameters were determined: […]

[6] = cited from earlier work

Compound: C1CCN(C2CCNCC2)CC1.N.[Cl][Pt][Cl] [Complex 3, Trans-[PtCl2(NH3)(4-piperidino-piperidine)]]
- decrease of EtBr fluorescence intensity by DNA adducts (plasmid pS16-hGH DNA): The best adduct
- toxicity (animal weight and survival) (In vivo toxicity): non-toxic
- Increase in life span (C-26 colon carcinoma): 108%
- Survival (C-26 colon carcinoma): 24 ± 3 days

Compound: Trans-[PtCl2(4-picoline)(piperazine)].HCl [Complex 13]
- Pt-DNA adducts (C-26 cells [1]; C-26, 24 hr): 297 pmol Pt/50 μg DNA
- DNA platination relative to Cis-Pt (C-26 cells [1]; C-26 cells): 7 fold
- Pt-DNA adducts (OV-1063 cells [2]; OV-1063, 24 hr): 205 pmol Pt/50 μg DNA
- DNA platination relative to Cis-Pt (OV-1063 cells [2]; OV-1063 cells): 7 fold
- decrease of EtBr fluorescence intensity by DNA adducts (plasmid pS16-hGH DNA): considerable decrease in fluorescence
- caspase-3 activation, increase in fluorescence vs untreated cells ([3]; 5 hr, 6.5 μM piperidine complex or 7.5 μM piperazine complex): ~2 fold
- caspase-3 activation, increase in fluorescence vs untreated cells ([3]; 16 hr): 3 fold
- IC50 (A2780): 10 ± 3 µM
- resistance factor (IC50 resistant/IC50 sensitive) (41McisR; 41McisR/41M): 3.3
- IC50 (41McisR; 24 hours incubation, MTS): 147 ± 10 µM
- IC50 (CH1cisR; 24 hours incubation, MTS): 42 ± 3 µM
- resistance factor (IC50 resistant/IC50 sensitive) (CH1cisR; CH1cisR/CH1): 2.6
- IC50 (CH1): 16 ± 2 µM
- IC50 (A2780cisR; 24 hours incubation, MTS): 24 ± 3 µM
- resistance factor (IC50 resistant/IC50 sensitive) (A2780cisR; A2780cisR/A2780): 2.4
- IC50 (41M): 45 ± 3 µM
- Penetration to cells (C-26 cells [4]): 54461 pmol Pt/1 * 10^6 cells
- Penetration to cells (OV-1063 cells [5]): 12307 pmol Pt/1 * 10^6 cells
- % IEC/adduct, frequency of interstrand crosslinks (calf thymus DNA): 6%
- unwinding angle per adduct (calf thymus DNA): 17°
- ΔTm, 0.01M Na+ (calf thymus DNA): +4.7 0.C
- t1/2 half time of the binding to calf thymus DNA (calf thymus DNA; 10 mM NaClO4, 37° C., ri = 0.08, differential pulse polarography): 12 min
- ΔTm, 0.2 M (calf thymus DNA; rb = 0.05, 0.2 M): −3.5 0.C
- ΔΔεmax, maximum of the positive CD band at around 275 nm (calf thymus DNA; rb = 0.05, difference between control and platinated DNA): −0.30

Compound: trans-[PtCl(PyAc—N,O)(NH3)]
- solubility in water [6]: 4 to 5 mM
